Earlier results, collected in article PMC5263201, “GABAA receptor occupancy by subtype selective GABAAα2,3 modulators: PET studies in humans” (Psychopharmacology, 2016).
Read-outs that look alike come from different tables or passages of the source.

Tests used:
[1] = biological target: BZ binding site, hippocampus synaptosomal membranes; set-up: method as in Dubinsky et al 2002; settings: (e) rat brain synaptosomal membranes; [3H]Ro15-4513; ref Dubinsky et al 2002; read-out: Affinity in vitro at BZ binding site (Ki), hippocampus; cited from earlier work
GABAA receptor [2] = settings: cited from earlier work; for Receptor occupancy: ref Atack et al 2010a
GABAA receptor α3 = biological target: GABAA receptor α3; set-up: method as in Sieghart 1995; settings: (d) review; ref Sieghart 1995; read-out: Affinity in vitro at BZ binding site (Ki) α3; cited from earlier work
GABAA receptor α5 = biological target: GABAA receptor α5; set-up: method as in Sieghart 1995; settings: (d) review; ref Sieghart 1995; read-out: Affinity in vitro at BZ binding site (Ki) α5; cited from earlier work
GABAA receptor α2 = biological target: GABAA receptor α2; set-up: method as in Sieghart 1995; settings: (d) review; ref Sieghart 1995; read-out: Affinity in vitro at BZ binding site (Ki) α2; cited from earlier work
[3] = biological target: GABAA α1, α2, α3, and α5 subunits; set-up: method as in Sieghart 1995; settings: ref Sieghart 1995; read-out: K i for the GABAA α1, α2, α3, and α5 subunits; cited from earlier work
GABAA α4 and α6 subunits = biological target: GABAA α4 and α6 subunits; set-up: method as in Sieghart 1995; settings: ref Sieghart 1995; read-out: K i for the α4 and α6 subunits; cited from earlier work
[4] = biological target: human recombinant GABAA receptors containing β3, γ2 plus α1; set-up: method as in Atack et al 2010a; settings: L(tk-) cells, human recombinant β3γ2 plus α1; mean (SEM); ref Atack et al 2010a; read-out: Affinity in vitro at BZ binding site (Ki) α1; cited from earlier work
GABAA α1β2γ2 = test system: GABAA α1β2γ2; set-up: method as in Christian et al 2015; settings: 1µM test concentration, GABA EC10, % of 1 µM diazepam, mean ±SE, ref Christian et al 2015; cited from earlier work
[5] = test system: human recombinant GABAA receptors containing β3γ2 plus α1; set-up: method as in Atack et al 2010; settings: ref Atack et al 2010, cited from earlier work; for Relative efficacy (%CDP) α1: maximum potentiation of GABA EC20 currents relative to chlordiazepoxide
[6] = ref Atack et al 2010a; cited from earlier work
[7] = test system: human recombinant GABAA receptors containing β3γ2 plus α5; set-up: method as in Atack et al 2010; settings: maximum potentiation of GABA EC20 currents relative to chlordiazepoxide; ref Atack et al 2010; cited from earlier work
[8] = biological target: human recombinant GABAA receptors containing β3, γ2 plus α5; set-up: method as in Atack et al 2010a; settings: L(tk-) cells, human recombinant β3γ2 plus α5; mean (SEM); ref Atack et al 2010a; read-out: Affinity in vitro at BZ binding site (Ki) α5; cited from earlier work
GABAA α2β3γ2 = test system: GABAA α2β3γ2; set-up: method as in Christian et al 2015; settings: 1µM test concentration, GABA EC10, % of 1 µM diazepam, mean ±SE, ref Christian et al 2015; cited from earlier work
[9] = test system: human recombinant GABAA receptors containing β3γ2 plus α3; set-up: method as in Atack et al 2010; settings: maximum potentiation of GABA EC20 currents relative to chlordiazepoxide; ref Atack et al 2010; cited from earlier work
[10] = test system: human recombinant GABAA receptors containing β3γ2 plus α2; set-up: method as in Atack et al 2010; settings: maximum potentiation of GABA EC20 currents relative to chlordiazepoxide; ref Atack et al 2010; cited from earlier work
[11] = biological target: human recombinant GABAA receptors containing β3, γ2 plus α2; set-up: method as in Atack et al 2010a; settings: L(tk-) cells, human recombinant β3γ2 plus α2; mean (SEM); ref Atack et al 2010a; read-out: Affinity in vitro at BZ binding site (Ki) α2; cited from earlier work
GABAA α3β3γ2 = test system: GABAA α3β3γ2; set-up: method as in Christian et al 2015; settings: 1µM test concentration, GABA EC10, % of 1 µM diazepam, mean ±SE, ref Christian et al 2015; cited from earlier work
[12] = biological target: human recombinant GABAA receptors containing β3, γ2 plus α3; set-up: method as in Atack et al 2010a; settings: L(tk-) cells, human recombinant β3γ2 plus α3; mean (SEM); ref Atack et al 2010a; read-out: Affinity in vitro at BZ binding site (Ki) α3; cited from earlier work
GABAA α5β3γ2 = test system: GABAA α5β3γ2; set-up: method as in Christian et al 2015; settings: 1µM test concentration, GABA EC10, % of 1 µM diazepam, mean ±SE, ref Christian et al 2015; cited from earlier work
GABAA receptor α1 = biological target: GABAA receptor α1; set-up: method as in Sieghart 1995; settings: (d) review; ref Sieghart 1995; read-out: Affinity in vitro at BZ binding site (Ki) α1; cited from earlier work
[13] = test system: human α2β2γ2 GABAA receptors; set-up: method as in Sanna et al 2002; settings: GABA-evoked Cl- currents, means ±SE, ref Sanna et al 2002; cited from earlier work
[14] = test system: human α5β2γ2 GABAA receptors; set-up: method as in Sanna et al 2002; settings: GABA-evoked Cl- currents, means ±SE, ref Sanna et al 2002; cited from earlier work
[15] = test system: human α1β2γ2 GABAA receptors; set-up: method as in Sanna et al 2002; settings: GABA-evoked Cl- currents, means ±SE, ref Sanna et al 2002; cited from earlier work
[16] = test system: human α3β2γ2 GABAA receptors; set-up: method as in Sanna et al 2002; settings: GABA-evoked Cl- currents, means ±SE, ref Sanna et al 2002; cited from earlier work
GABAA receptor [17] = test system: GABAA receptor; set-up: method as in Bottlaender et al 1994; settings: In NHP; corresponds to 4-500 µg/kg; ref Bottlaender et al 1994; cited from earlier work
[18] = biological target: human recombinant GABAA receptors containing β3, γ2 plus α3; set-up: method as in Atack et al 1999; settings: (c) human recombinant β3γ2 plus α3; [3H]Ro 15-1788; ref Atack et al 1999; read-out: Affinity in vitro at BZ binding site (Ki) α3; cited from earlier work
[19] = biological target: human recombinant GABAA receptors containing β3, γ2 plus α1; set-up: method as in Atack et al 1999; settings: (c) human recombinant β3γ2 plus α1; [3H]Ro 15-1788; ref Atack et al 1999; read-out: Affinity in vitro at BZ binding site (Ki) α1; cited from earlier work
[20] = biological target: human recombinant GABAA receptors containing β3, γ2 plus α2; set-up: method as in Atack et al 1999; settings: (c) human recombinant β3γ2 plus α2; [3H]Ro 15-1788; ref Atack et al 1999; read-out: Affinity in vitro at BZ binding site (Ki) α2; cited from earlier work
[21] = biological target: human recombinant GABAA receptors containing β3, γ2 plus α5; set-up: method as in Atack et al 1999; settings: (c) human recombinant β3γ2 plus α5; [3H]Ro 15-1788; ref Atack et al 1999; read-out: Affinity in vitro at BZ binding site (Ki) α5; cited from earlier work

Compound	Ki [1]	Ki (GABAA receptor α3)	Ki (GABAA receptor α2)	Ki [4]	Relative efficacy (%CDP) α1 [5]	maximum tolerated dose (MTD) [6]	Relative efficacy (%CDP) α5 [7]	Ki [8]	Relative efficacy (%CDP) α3 [9]	Relative efficacy (%CDP) α2 [10]	Ki [11]	Ki [12]	other results
Cc1nnc2n1-c1ccc(Cl)cc1C(c1ccccc1)=NC2 [Alprazolam]	5 nM												Receptor occupancy (RO) (GABAA receptor [2]; 2mg/day, sedation, ref Fujita et al 1999): RO:16% (2mg/day, sedation) /Fujita et al 1999 Affinity: Dubinsky et al 2002
CN1C(=O)CN=C(c2ccccc2)c2cc(Cl)ccc21 [Diazepam]	12.6 nM	17 nM	16.9 nM										Ki (GABAA receptor α5): 14.9 nM; Receptor occupancy (RO) (GABAA receptor [2]; at 30mg, sedation, ref Pauli et al 1992): RO:24%, at 30mg, sedation/ Pauli et al 1992 Affinity: c) Atack et al 1999, d) Sieghart 1995;
CCOC(=O)c1ncn2c1CN(C)C(=O)c1cc(F)ccc1-2 [Flumazenil]													Ki [3]: ~1 nM; Ki (GABAA α4 and α6 subunits): ~150 nM
O=C1Nc2ccc(Cl)cc2C(c2ccccc2Cl)=NC1O (centres unmarked) [Lorazepam]	8.6 nM												Receptor occupancy (RO) (GABAA receptor [2]; 2 mg, ref Lindfors-Hughes et al 2005, Atack et al 2010b): RO: ≤10% (2 mg) / Lindfors-Hughes et al 2005, Atack et al 2010b Affinity: Dubinsky et al 2002
CCn1ncnc1COc1nn2c(-c3ccccc3F)nnc2cc1C(C)(C)C [TPA-023, 7-(1,1-dimethylethyl)-6-(2-ethyl-2H-1,2,4-triazol-3-ylmethoxy)-3-(2-fluorophenyl)-1,2,4-triazolo[4,3-b]pyridazine]				0.27 nM	0%	2 mg	5%	0.41 nM	21%	11%	0.31 nM	0.19 nM	Relative efficacy (%DZ) α1 (GABAA α1β2γ2): 5±3%; comment on intrinsic activity at α1 [5]: Christian et al 2015 Atack et al 2010 /antagonist at α1; Relative efficacy (%DZ) α2 (GABAA α2β3γ2): 15±2%; Relative efficacy (%DZ) α3 (GABAA α3β3γ2): 17±1%; Receptor occupancy (GABAA receptor [2]; at 2mg, MTD): 35-65%; receptor occupancy with lack of overt sedation (GABAA receptor [2]; ref Atack et al. 2010, 2011a,b): up to 50%; Relative efficacy (%DZ) α5 (GABAA α5β3γ2): 6±4%
CC(C)(O)c1cnn2c(-c3ccc(F)c(-c4c(F)cccc4C#N)c3)cnc2n1 [TPA-023B]				0.73 ± 0.21 nM	3±1%	2 mg	37±4%	1.1 ± 0.2 nM	50±2%	38±4%	2 ± 0.4 nM	1.8 ± 0.4 nM	Receptor occupancy (GABAA receptor [2]; at 1.5 mg): 53%
Cc1nnc2n1-c1ccc(Cl)cc1C(c1ccccc1Cl)=NC2 [Triazolam]		3 ± 0.7 nM	1.2 ± 0.2 nM										Ki (GABAA receptor α1): 1.8 ± 0.4 nM; Relative efficacy (%) α2, maximal percentage potentiation [13]: 255±11%; Ki (GABAA receptor α5): 1.2 ± 0.3 nM; Relative efficacy (%) α5, maximal percentage potentiation [14]: 165±8%; Relative efficacy (%) α1, maximal percentage potentiation [15]: 132±6%; Relative efficacy (%) α3, maximal percentage potentiation [16]: 270±13%; Receptor occupancy (RO) (GABAA receptor [17]): In NHP: 5-100% RO corresponds to 4-500 µg/kg/ Bottlaender et al 1994 Affinity: Sieghart 1995
Cc1ccc(-c2nc3ccc(C)cn3c2CC(=O)N(C)C)cc1 [Zolpidem]		357 nM	291 nM										Ki (GABAA receptor α1): 17 nM; Relative efficacy (%) α2, maximal percentage potentiation [13]: 198±20%; Ki [18]: 380 nM; Relative efficacy (%) α5, maximal percentage potentiation [14]: 15±5%; Relative efficacy (%) α1, maximal percentage potentiation [15]: 100±5%; Relative efficacy (%) α3, maximal percentage potentiation [16]: 217±34%; Ki [19]: 27 nM; Receptor occupancy (RO) (GABAA receptor [2]; 20mg, drowsiness, ref Abadie et al 1996): 21%; Receptor occupancy (RO) (GABAA receptor [2]; at 10mg therapeutic dose, ref Abadie et al 1996): 15%; Ki [20]: 160 nM; Ki [21]: > 10000 nM
MRK-409				0.22 ± 0.02 nM	18%	1 mg	18%	0.23 ± 0.04 nM	45%	23%	0.4 ± 0.07 nM	0.21 ± 0.03 nM	comment on intrinsic activity at α1 [5]: Atack et al 2010/weak partial agonist at α1; Receptor occupancy (GABAA receptor [2]; at 1mg, MTD): < 10%; receptor occupancy at severe sedation (GABAA receptor [2]; ref Atack et al. 2010, 2011a,b): < 10%
